From US20190284192A1, “NITROGENOUS MACROCYCLIC COMPOUND, PREPARATION METHOD THEREFOR, PHARMACEUTICAL COMPOSITION AND APPLICATION THEREOF” (LUOXIN PHARMACEUTICAL (SHANGHAI) CO., LTD., priority 2016, published 2019) come the findings set out here.

Several values for one entry are separate records, joined by “and”; a condition that tells them apart may be missing. Equal entries are not always repeated. Where two headings read alike, the source gives them in different places.

The AUC(0-inf) is the area under the concentration-time curve extrapolated to infinity. Usually AUC(0-t) stands for exposure summed from dosing to a finite time, without extrapolation to infinity. Usually MRT inf stands for a mean duration of stay, worked out from the concentration-time curve. By Tmax is commonly meant the time from dosing to the highest level.

For one series, the target named is T1, BRD4 (BD2) (Homo sapiens, UniProt O60885).
T1 construct: Each member comprises two tandem bromodomains (BD1 and BD2) for recognizing the acetylated lysine residues
Description: BRD4 (BD2) bromodomain binding, HTRF. The settings on record: 2 h incubation at r.t. (In TR-FRET formats the signal depends on donor and acceptor labels being close together.)

A further series relates to MV-4-11 cells. The series is described as follows: Inhibitory effect on MV-4-11 cells (CellTiter-Glo). Format: cell-based. The conditions noted are these: Homo sapiens, MV4-11; 72 hours, CellTiter-Glo; read-out: MV-4-11. (ATP-based viability assays read luminescence as a measure of living cells.)
Series [1] in a line: Cassette pharmacokinetic study, intravenous or oral administration. Format: in vivo, female Balb/c nude mice. On the set-up: Cmax: unit not given here. The conditions noted are these: for F: PO 2 mg/kg vs IV 0.5 mg/kg; for AUC(0-inf) / AUC(0-t) / MRT inf / clearance / half-life / Vd / Tmax: female, Balb/c nude, mouse, whole blood; for half-life: read-out: Terminal t1/2 (converted); for Vd: read-out: Vss. The method, then: Determinations of the pharmacokinetic parameters of ABBV-075 (standard control), 4009, 4018, 4026 and 4031 in femal Balb/c nude mice after intravenous or oral administration.
Detailed Experimental Steps:
6 female Balb/c nude mice weighing 18-20 g were divided into two groups (3/group), after fixation, the intravenous group: 0.5 mg/kg (5 mL/kg) injected by caudal vein (N=3); the oral group: 2 mg/kg (10 mL/kg) by intragastic administration (N=3). Approximately 20 μL of blood was drawn behind the eyeball at the sampling point and placed in EDTA-2K tube. The sample was immediately diluted with 40 μL of double distilled water and vortexed until well mixed. Blood samples were stored at approximately −70° C. and submitted to the BA group for analysis (LC/MS). 30 μL of blood sample was added with 200 μL of H2O and 30 μL of IS dexamethasone, 200 ng/mL), layered by LLE, and 1 mL of MTBW was added as an organic extraction solvent. The mixture was vortexed for 10 min and centrifuged at 10,000 rpm for 5 min. 850 μL of the supernatant was evaporated under nitrogen until desiccated. The desiccated extract was re-mixed with 150 μL of 50% methanol, vortexed for 2 min, and then analyzed by injecting 5 μL of the supernatant into LC-MS/MS.
2. Intravenous/oral administration formula: 5% DMSO, 95% (10% HP-3-CD in water)
3. PK calculation parameter used non-compartment model, WinNonlin 6.4 software calculation

The test system of series [2] is MV-4-11 subcutaneous xenograft tumor. The series is described as follows: Anti-tumor efficacy in vivo, MV-4-11 subcutaneous xenograft model. Further details: species or system BALB/c nude mice. The settings on record: for P, tumor volume difference between the control group and the administrated group: Two-way Anova Bonferroni post-test.
Description: According to the growth of the cells, the treatment was passaged twice a week. When the cells are in the exponential growth phase, the cells are collected, counted, and inoculated.
Experimental protocol: 0.2 mL of cell suspension containing about 5×10^MV-4-11 cells (cell suspended in IMDM medium and added with 50% Matrigel) was inoculated subcutaneously into the right back of each mouse. Group administration was initiated when the average tumor volume reached approximately 136.94 mm^3 (day 15 post inoculation). Grouping method: Animals were weighed before dosing and tumor volume was measured. Grouping designed based on tumor volume.
The experimental indicator is to investigate whether tumor growth can be inhibited, delayed or cured. Tumor diameters were measured with vernier calipers three times a week. The formula for calculating tumor volume is: V=0.5×a×b^2, a and b represent the long and short diameters of the tumor, respectively. The antitumor effect of the compound was evaluated by T/C (%). T/C %=TRTV/CRTV×100% (TRTV: treatment group RTV; CRTV: negative comparative group RTV). The relative tumor volume RTV is calculated as RTV=Vt/V1. Where V1 is the measured tumor volume at the time of group administration (i.e., Day 1), and Vt is the tumor volume at each measurement.
The tumor volume and tumor size were analysed by statistical software. GraphPad Prism software was used for analyzation, p<0.05 is considered to have significant difference, p<0.01 is considered to have extremely significant difference.
Two-way Anova Bonferroni post-test is used to compare the tumor volume difference between the control group and the treatment group.
The nature of series [3]: Body weight of MV-4-11 tumor-bearing mice during treatment. Format: in vivo. The settings on record: intragastric QD*14, ABBV-075 3, GSK762 15, 4009 10 mg/kg. The protocol:
The preparation and any revision of this experimental protocol are carried out in accordance with the evaluation criteria of the “Institute for Animal Care and Use (IACUC)” of Shanghai Chempartner Chemical Research Co., Ltd. The use and welfare of laboratory animals are carried out in accordance with the provisions of the Association for Assessment and Accreditation of Laboratory Animal Care (AAALAC). Animals are monitored daily for health and death. Routine examinations include observations of the effects of the test substance and the drug on the daily behavior of the animal such as behavioral activities, intake of water and feeds, weight change (three weights measured weekly), appearance signs or other anormal circumstance. The number of animal deaths and side effects in the group were recorded based on the number of animals in each group.

On to `CCS(=O)(=O)Cc1ccc2c(c1)-c1cn(C)c(=O)cc1[C@H](C)N=C2c1ccc(F)cc1` [Compound 4026, (S)-10-((ethylsulfone)methyl)-7-(4-fluorophenyl)-2,5-dimethyl-2,5-dihydro-3H-benzo[c]pyrido[3,4-e]azepin-3-ketone], for which the IC50 on BRD4 (BD2) turned out to be 1 nM. In addition, in the series with MV-4-11 cells, the IC50 came to 4 nM. In series [1], this compound gave an F of 89.5%. Further, in series [1] (PO 2 mg/kg, N = 3, cassette), the Cmax is listed as 1082, the total exposure AUC(0-inf) is 4050 ng·h/mL, the AUC(0-t) is 3740 ng·h/mL and the Tmax was 30 min. Besides, in series [1] (PO 2 mg/kg, N = 3, cassette), the half-life is 261 min. In addition, in series [1] (IV 0.5 mg/kg, N = 3, cassette), the AUC(0-inf) was 1140 ng·h/mL, the AUC(0-t) came out at 1100 ng·h/mL, the MRT inf was found to be 3.21 h and the clearance was 7.5 mL/min/kg. In addition, in series [1] (IV 0.5 mg/kg, N = 3, cassette), the half-life is 171 min and the Vd came out at 1.43 L/kg.
As for `CCS(=O)(=O)Nc1ccc(Oc2ccc(F)cc2F)c(-c2cn(C)c(=O)c3[nH]ccc23)c1` [ABBV-075], the IC50 on BRD4 (BD2) worked out at 1 nM; with MV-4-11 cells, 7 nM. This compound displayed a F in series [1] of 62.5%. Further, the AUC(0-inf) in series [1] (IV 0.5 mg/kg, N = 3, cassette) came out at 510 ng·h/mL; in series [1] (PO 2 mg/kg, N = 3, cassette), 1680 ng·h/mL. In addition, the AUC(0-t) in series [1] (IV 0.5 mg/kg, N = 3, cassette) was determined as 457 ng·h/mL; in series [1] (PO 2 mg/kg, N = 3, cassette) it was 1140 ng·h/mL. This compound gave an MRT inf in series [1] (IV 0.5 mg/kg, N = 3, cassette) of 3.1 h. Besides, the clearance in series [1] (IV 0.5 mg/kg, N = 3, cassette) is 16.4 mL/min/kg. Moreover, the half-life in series [1] (IV 0.5 mg/kg, N = 3, cassette) was 168 min; in series [1] (PO 2 mg/kg, N = 3, cassette) it was 274 min. For the same compound, in series [1] (IV 0.5 mg/kg, N = 3, cassette), the Vd stood at 3.06 L/kg. Further, the Tmax in series [1] (PO 2 mg/kg, N = 3, cassette) was found to be 60 min. In series [2] (ABBV-075 3 mg/kg, GSK762 15 mg/kg, 4009 10 mg/kg, intragastric QD*14), the “anti-tumor effect on the MV-4-11 cell xenograft tumor mouse model” value is “significant anti-tumor effect”. This compound gave a T/C % in series [2] (TRTV/CRTV, intragastric QD*14, ABBV-075 3, GSK762 15, 4009 10 mg/kg, 15th day) of 34.24%. For the same compound, the “P, tumor volume difference between the control group and the administrated group” value was “P > 0.05” in series [2] (day 1 after administration, ABBV-075 3, GSK762 15, 4009 10 mg/kg); “P > 0.05” in series [2] (day 4 after administration, ABBV-075 3, GSK762 15, 4009 10 mg/kg); “P > 0.05” in series [2] (day 6 after administration, ABBV-075 3, GSK762 15, 4009 10 mg/kg); “P > 0.05” in series [2] (day 8 after administration, ABBV-075 3, GSK762 15, 4009 10 mg/kg); “P < 0.01 (***)” in series [2] (day 11 after administration, ABBV-075 3, GSK762 15, 4009 10 mg/kg); “P < 0.01 (***)” in series [2] (day 13 after administration, ABBV-075 3, GSK762 15, 4009 10 mg/kg). Also, in series [2] (day 15 after administration, ABBV-075 3, GSK762 15, 4009 10 mg/kg), the “P, tumor volume difference between the control group and the administrated group” value is on record as “P < 0.01 (***)”. The “Average tumor weight, 15th day of treatement” value in series [2] (intragastric QD*14, ABBV-075 3, GSK762 15, 4009 10 mg/kg) came out at 0.314 ± 0.05 g. In series [2] (intragastric QD*14, ABBV-075 3, GSK762 15, 4009 10 mg/kg, 1st day), the “Average tumor volume, Treatement starts 1st day” value worked out at 136.45 ± 14.05 mm^3. Besides, the “Tumor volume TGI (%) 4th day” value in series [2] (intragastric QD*14, ABBV-075 3, GSK762 15, 4009 10 mg/kg, 4th day) was determined as 97.12%. Moreover, in series [2] (intragastric QD*14, ABBV-075 3, GSK762 15, 4009 10 mg/kg, 6th day), the “Tumor volume TGI (%) 6th day” value is recorded as 69.45%. In addition, the “Tumor volume TGI (%) 8th day” value in series [2] (intragastric QD*14, ABBV-075 3, GSK762 15, 4009 10 mg/kg, 8th day) was determined as 73.8%. For the same compound, the “Tumor volume TGI (%) 11th day” value in series [2] (intragastric QD*14, ABBV-075 3, GSK762 15, 4009 10 mg/kg, 11th day) was 72.41%. The “Tumor volume TGI (%) 13th day” value in series [2] (intragastric QD*14, ABBV-075 3, GSK762 15, 4009 10 mg/kg, 13th day) is recorded as 75.81%. The “Tumor volume TGI (%) 15th day” value in series [2] (intragastric QD*14, ABBV-075 3, GSK762 15, 4009 10 mg/kg, 15th day) was 75.56%. In addition, the “Average tumor volume, Treatement ends 15th day” value in series [2] (intragastric QD*14, ABBV-075 3, GSK762 15, 4009 10 mg/kg, 15th day, 10 mg/kg) is 346.72 mm^3 and 346.72 ± 68.96 mm^3. Further, in series [3] (relative body weight change vs Day 1), the “Average RCBW, Treatment end Day 15” value stood at 2.72%. Moreover, in series [3] (x ± SEM), the “Average body weight, Treatment end Day 15” value was 21.95 ± 0.36 g. Moreover, in series [3] (x ± SEM), the “Average body weight, Treatment start Day 1” value is 21.36 ± 0.21 g.
